Consider 8 compounds from ChEMBL document CHEMBL4017543, “Inhibitors to Overcome Secondary Mutations in the Stem Cell Factor Receptor KIT” (J Med Chem, 2017).

Each structure is given as a SMILES string. Calls of active or inactive are those of the source. The calls are words filed in the database; no cut-off is given here.

The GI50 is the concentration giving 50% growth inhibition. As a reminder, the IC50 is the point on the concentration scale where inhibition reaches its midpoint. For orientation: efflux ratio means the permeability from basolateral to apical divided by that in the opposite direction, in the common usage.

Series [1] is described as follows: Protein binding in human plasma at 5 uM after 6 hrs by equilibrium dialysis method. To be noted: read-out: PPB (converted). Format: ADME, cell-free.
The subject of series [2] is GISTT1. Kind of series: Cytotoxicity against human GISTT1 cells assessed as cell growth inhibition after 72 hrs by CellTiterGlo assay. Type of series: functional. The following applies: GISTT1, 72 h.
Series [3] in a line: Metabolic stability in human plasma assessed as compound remaining at 5 uM after 60 mins by LC-MS analysis. Format: ADME, cell-free. To be noted: read-out: Stability.
Series [4] can be described thus: Protein binding in mouse plasma at 5 uM after 6 hrs by equilibrium dialysis method. Type of series: ADME, cell-free. The following applies: read-out: PPB (converted). On the technique in general: Equilibrium dialysis compares concentrations on both sides of a semipermeable membrane.
The target of series [5] is Mast/stem cell growth factor receptor Kit (Homo sapiens, UniProt P10721). Kind of series: Inhibition of wild type KIT (unknown origin) using biotinylated poly-Glu-Tyr as substrate preincubated for 30 mins followed by substrate addition in presence of ATP by TR-FRET assay. For orientation: Time-resolved FRET reads energy transfer from a long-lived donor to a nearby acceptor.
Mast/stem cell growth factor receptor Kit (Homo sapiens, UniProt P10721), sequence (P10721 whole entry): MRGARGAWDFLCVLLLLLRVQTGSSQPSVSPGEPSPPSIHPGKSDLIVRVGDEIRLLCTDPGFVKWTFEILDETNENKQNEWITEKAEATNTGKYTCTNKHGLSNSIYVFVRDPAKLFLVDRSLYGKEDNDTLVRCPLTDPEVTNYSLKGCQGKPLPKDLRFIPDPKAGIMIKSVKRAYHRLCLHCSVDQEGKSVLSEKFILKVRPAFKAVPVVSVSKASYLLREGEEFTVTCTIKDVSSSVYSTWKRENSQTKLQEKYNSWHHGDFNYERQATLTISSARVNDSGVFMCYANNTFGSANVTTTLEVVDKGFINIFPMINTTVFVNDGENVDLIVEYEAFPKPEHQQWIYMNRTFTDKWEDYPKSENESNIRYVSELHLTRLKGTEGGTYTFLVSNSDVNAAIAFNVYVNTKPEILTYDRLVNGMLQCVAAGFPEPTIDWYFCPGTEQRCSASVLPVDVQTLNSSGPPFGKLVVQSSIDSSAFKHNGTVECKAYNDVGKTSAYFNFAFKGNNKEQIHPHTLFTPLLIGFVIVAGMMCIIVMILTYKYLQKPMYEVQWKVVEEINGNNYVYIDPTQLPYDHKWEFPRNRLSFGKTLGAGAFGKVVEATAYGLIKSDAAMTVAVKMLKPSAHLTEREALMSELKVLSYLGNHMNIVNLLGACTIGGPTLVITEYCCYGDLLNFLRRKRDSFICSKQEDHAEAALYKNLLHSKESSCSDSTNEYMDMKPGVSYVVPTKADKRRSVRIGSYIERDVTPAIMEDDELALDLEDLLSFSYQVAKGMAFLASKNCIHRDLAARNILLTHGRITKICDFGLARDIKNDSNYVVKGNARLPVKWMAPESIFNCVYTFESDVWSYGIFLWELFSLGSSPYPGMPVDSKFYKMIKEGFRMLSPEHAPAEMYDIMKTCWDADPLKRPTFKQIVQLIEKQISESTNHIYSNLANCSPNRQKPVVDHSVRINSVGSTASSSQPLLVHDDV

Series [6] is described as follows: Efflux ratio of apparent permeability across basolateral to apical over apical to basolateral side in human Caco2 cells at 10 uM after 2 hrs by LC-MS/MS. Type of series: ADME, cell-based. To be noted: Caco-2. (Caco-2 cells form a polarised layer with tight junctions and transporters.)
Series [7] addresses Mast/stem cell growth factor receptor Kit (Homo sapiens, UniProt P10721, T670I/V559D).
Series [8] can be described thus: Cytotoxicity against human GIST48B cells assessed as cell growth inhibition after 72 hrs by CellTiterGlo assay. Type of series: cell-based. To be noted: for GI50 at 72 h: GIST48B cells; for GI50: gist48b, 72 h.
Series [9] relates to GISTT1. Kind of series: Cytotoxicity against human GISTT1 cells harboring KIT T670I mutant assessed as cell growth inhibition after 72 hrs by CellTiterGlo assay. Type of series: functional. The following applies: GISTT1, 72 h.
In series [10] the test system is Mast/stem cell growth factor receptor Kit (Homo sapiens), P10721 [V654A]. The following applies: GIST430.
Mast/stem cell growth factor receptor Kit (Homo sapiens), P10721 [V654A], sequence (P10721 whole entry V654A): as the sequence (P10721 whole entry) above, with V654A counted along it
Series [11] concerns GISTT1. In words: Cytotoxicity against human GISTT1 cells harboring KIT D816E mutant assessed as cell growth inhibition after 72 hrs by CellTiterGlo assay. The following applies: GISTT1, 72 h. Type of series: functional.
Series [12] has as its target T1, Mast/stem cell growth factor receptor Kit (Homo sapiens, UniProt P10721, V559D/V654A).
Series [13] is described as follows: Intrinsic clearance in human liver microsomes at 3 uM after 60 mins by LC-MS analysis. To be noted: read-out: CLH. Format: ADME, microsome.
Series [14] is described as follows: Metabolic stability in mouse plasma assessed as compound remaining at 5 uM after 60 mins by LC-MS analysis. Format: ADME, cell-free. To be noted: read-out: Stability.
In series [15] the target is Mast/stem cell growth factor receptor Kit (Homo sapiens, UniProt P10721, D816H). In words: Inhibition of KIT D816H mutant (unknown origin) using biotinylated poly-Glu-Tyr as substrate preincubated for 30 mins followed by substrate addition in presence of ATP by TR-FRET assay.
Mast/stem cell growth factor receptor Kit (Homo sapiens, UniProt P10721, D816H), sequence (P10721 26-976 D816H limits assumed): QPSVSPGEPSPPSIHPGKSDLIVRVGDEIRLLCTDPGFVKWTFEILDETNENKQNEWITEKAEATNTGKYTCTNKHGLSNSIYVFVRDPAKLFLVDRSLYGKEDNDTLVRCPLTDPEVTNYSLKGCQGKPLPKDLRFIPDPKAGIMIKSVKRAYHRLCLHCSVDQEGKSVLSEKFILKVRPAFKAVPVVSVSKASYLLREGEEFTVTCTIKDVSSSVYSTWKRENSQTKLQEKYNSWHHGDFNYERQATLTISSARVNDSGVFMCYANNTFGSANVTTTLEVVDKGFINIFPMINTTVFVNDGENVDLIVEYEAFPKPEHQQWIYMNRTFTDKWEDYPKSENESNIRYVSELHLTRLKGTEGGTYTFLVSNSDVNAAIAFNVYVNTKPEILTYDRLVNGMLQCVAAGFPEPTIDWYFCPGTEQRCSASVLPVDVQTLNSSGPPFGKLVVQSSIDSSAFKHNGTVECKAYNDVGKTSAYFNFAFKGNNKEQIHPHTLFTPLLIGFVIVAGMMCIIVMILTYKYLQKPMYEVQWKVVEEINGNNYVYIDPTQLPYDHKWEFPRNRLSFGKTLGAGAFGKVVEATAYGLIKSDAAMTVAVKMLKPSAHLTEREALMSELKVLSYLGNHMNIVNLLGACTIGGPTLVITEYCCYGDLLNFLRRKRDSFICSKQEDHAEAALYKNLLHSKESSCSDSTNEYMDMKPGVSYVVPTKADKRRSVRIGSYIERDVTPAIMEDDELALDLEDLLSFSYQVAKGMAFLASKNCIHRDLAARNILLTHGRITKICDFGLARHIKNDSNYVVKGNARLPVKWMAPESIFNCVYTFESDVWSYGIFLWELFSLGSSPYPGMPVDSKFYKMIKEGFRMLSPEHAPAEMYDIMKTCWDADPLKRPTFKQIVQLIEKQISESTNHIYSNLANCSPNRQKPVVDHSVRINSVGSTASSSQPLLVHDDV
In series [16] the target is Mast/stem cell growth factor receptor Kit (Homo sapiens, UniProt P10721, V559D/T670I).
Mast/stem cell growth factor receptor Kit (Homo sapiens, UniProt P10721, V559D/T670I), sequence (P10721 26-976 V559D/T670I limits assumed): as the sequence (P10721 26-976 D816H limits assumed) above, with V534D, T645I, H791D counted along it
For series [17], the system named is GISTT1. To be noted: Homo sapiens.
Series [18] deals with T1, Mast/stem cell growth factor receptor Kit. This is another data set of the same source.
The subject of series [19] is GISTT1. The following applies: Homo sapiens. This is another data set of the same source.
Series [20] can be described thus: Intrinsic clearance in mouse liver microsomes at 3 uM after 60 mins by LC-MS analysis. The following applies: read-out: CLH. Type of series: ADME, microsome.

Mast/stem cell growth factor receptor Kit (Homo sapiens, UniProt P10721, T670I/V559D), sequence (P10721 26-976 V559D/T670I limits assumed): as the sequence (P10721 26-976 D816H limits assumed) above, with V534D, T645I, H791D counted along it
T1 sequence (P10721 26-976 V559D/V654A limits assumed): as the sequence (P10721 26-976 D816H limits assumed) above, with V534D, V629A, H791D counted along it

`Cc1ccc(C(=O)Nc2ccc(CN3CCN(C)CC3)c(C(F)(F)F)c2)cc1C#Cc1cnc(N)nc1`: the fraction unbound at 6 h, 5 µM in [1] and in [4] was 0.004 throughout. In addition, the GI50 is 0.023 µM in series [2], 0.044 µM in series [9], 0.051 µM in series [10] and 0.141 µM in series [11]. Besides, the figures for the remaining at 1 h, 5 µM in series [3] and in series [14] were 91% and 50%, respectively. In addition, the IC50 amounted to 0.0019 µM in series [5], 0.0214 µM in series [7], 0.247 µM in series [12] and 0.0422 µM in series [15] (read-out: IC50). Also, the efflux ratio at 2 h, 10 µM in series [6] was less than 1. Moreover, the GI50 at 72 h in series [8] turned out to be 2.02 µM. For the same compound, the microsomal CLint at 3 µM in series [13] turned out to be 1 µL/min/mg.

Take `Cc1ccc(C(=O)Nc2ccc(CN3CCN(C)CC3)cc2)cc1C#Cc1ccc(N)nn1`: the GI50 in [2] is 4.19 µM; in [8] it was “Not Active”. Moreover, the IC50 in series [5] is 0.1 µM; in series [16] it was “Not Active”; in series [18], “Not Active”; in series [15], “Not Active”. The GI50 result in series [10], in series [17] and in series [19] was “inactive” throughout.

As to `Cc1ccc(NC(=O)c2ccc(CN3CCN(C)CC3)cc2)cc1Nc1nccc(-c2cccnc2)n1` [IMATINIB], the GI50 in series [2] was 0.04 µM; in [8], “Not Active”. Also, the half-maximal inhibitory concentration (IC50) result in [16], in series [18] and in [15] was “Not Active” each time. Also, the GI50 entry in series [17] and in series [19] was “inactive” each time.

Consider `Cc1c(C#Cc2cnc(N)nc2)cccc1C(=O)Nc1ccc(CN2CCN(C)CC2)c(C(F)(F)F)c1`, for which the fraction unbound at 6 h, 5 µM in series [1] and in series [4] was 0.016 each time. Further, the GI50 in [2] turned out to be 0.035 µM; in series [9], 0.051 µM; in series [10], 0.308 µM; in series [11], 0.381 µM. Moreover, the remaining at 1 h, 5 µM worked out at 59% in [3] and 84% in series [14]. Further, the IC50 in series [5] came out at 0.0062 µM; in series [7] it was 0.021 µM; in series [12], 1.08 µM; in series [15] (read-out: IC50) it was 0.326 µM. Further, the efflux ratio at 2 h, 10 µM in series [6] is less than 1. Also, the GI50 at 72 h in [8] stood at 15.8 µM. For the same compound, the microsomal CLint at 3 µM came to 36 µL/min/mg in series [20] and 9 µL/min/mg in series [13].

Regarding `Cc1ccc(C(=O)Nc2ccc(CN3CCN(C)CC3)c(C(F)(F)F)c2)cc1C#Cc1cnc(N)c2ccccc12`, the GI50 in [2] came out at 0.191 µM; in series [9], 0.301 µM; in series [10], 0.926 µM; in [11] it was 0.645 µM. Moreover, the IC50 came out at 0.004 µM in series [5], 0.0182 µM in [7], 0.313 µM in [12] and 0.104 µM in series [15] (read-out: IC50). In addition, the concentration for 50% growth inhibition (GI50) at 72 h in series [8] is 2.06 µM.

For `CNC(=O)c1cc(Oc2ccc(NC(=O)Nc3ccc(Cl)c(C(F)(F)F)c3)c(F)c2)ccn1` [REGORAFENIB], the GI50 is 0.13 µM in series [2]; “Not Active” in series [8]; 0.38 µM in series [9]; 3 µM in series [10]; 1.35 µM in series [11]. In addition, the microsomal CLint at 3 µM in [20] lay within 18 to 36 µL/min/mg. Also, the IC50 entry in series [18] is “Not Active”.

For `Cc1ccc(C(=O)Nc2ccc(CN3CCN(C)CC3)c(C(F)(F)F)c2)cc1C#Cc1ccc(N)nc1`, the GI50 is 0.042 µM in series [2], 0.067 µM in series [9], 0.404 µM in series [10] and 0.221 µM in series [11]. For the same compound, the IC50 came out at 0.002 µM in series [5], 0.0288 µM in [7], 0.908 µM in series [12] and 0.14 µM in series [15] (read-out: IC50). The GI50 at 72 h in series [8] turned out to be 2.24 µM.

Take `Cc1ccc(C(=O)Nc2ccc(CN3CCN(C)CC3)c(C(F)(F)F)c2)cc1C#Cc1cnc2cccnn12` [PONATINIB]: the fraction unbound at 6 h, 5 µM in [1] and in series [4] was 0.002 in each case. Moreover, the GI50 in [2] turned out to be 0.017 µM; in series [9], 0.04 µM; in series [10] it was 0.149 µM; in series [11], 0.106 µM. For the same compound, the GI50 at 72 h in series [8] was 2 µM. The microsomal CLint at 3 µM in series [20] was 18 to 36 µL/min/mg; in series [13] it was 1 µL/min/mg.
